From article PMC4303209, “A novel phosphatidylinositol 3-kinase (PI3K) inhibitor directs a potent FOXO-dependent, p53-independent cell cycle arrest phenotype characterized by the differential induction of a subset of FOXO-regulated genes” (Breast Cancer Research : BCR, 2014)

System: MCF-7 breast cancer cells
Assay: Microarray gene expression analysis (Agilent whole human genome 4 x 44K; compound vs DMSO, LIMMA log2 fold change)
Assay type: cell-based
Settings: Apoptosis genes

With `Cn1ncc2c(N3CCOCC3)nc(-c3cccc(O)c3)nc21` [ETP-45658] the “ITGB3BP log2FC” value (Gene 23421) was 0.773, the “RYBP log2FC” value (Gene 23429) was 0.520 and the “HEY2 log2FC” value (Gene 23493) was -0.060. For the same molecule, the “SCRIB log2FC” value (Gene 23513) was -0.165, the “CLCF1 log2FC” value (Gene 23529) was -0.993 and the “PRAME log2FC” value (Gene 23532) was -0.401. For the same molecule, the “DDAH2 log2FC” value (Gene 23564) was 0.126, the “ZNF346 log2FC” value (Gene 23567) was 0.167 and the “CASP14 log2FC” value (Gene 23581) was -0.095. For the same molecule, the “NUP62 log2FC” value (Gene 23636) was -0.576, the “PPP1R15A log2FC” value (Gene 23645) was 1.011 and the “AIPL1 log2FC” value (Gene 23746) was -0.252. The “FKBP8 log2FC” value (Gene 23770) was -0.132, the “BCL2L13 log2FC” value (Gene 23786) was 0.179 and the “MTCH1 log2FC” value (Gene 23787) was 0.077. For the same molecule, the “NGEF log2FC” value (Gene 25791) was 0.588, the “SPDEF log2FC” value (Gene 25803) was -0.326 and the “TNFAIP8 log2FC” value (Gene 25816) was 0.706. The “PRDX5 log2FC” value (Gene 25824) was -0.074, the “BRMS1 log2FC” value (Gene 25855) was -0.580 and the “SIN3A log2FC” value (Gene 25942) was 0.788. For the same molecule, the “HIGD1A log2FC” value (Gene 25994) was 0.198, the “SERBP1 log2FC” value (Gene 26135) was 0.313 and the “NOC2L log2FC” value (Gene 26155) was -0.773. For the same molecule, the “TIAM2 log2FC” value (Gene 26230) was 0.410, the “AATF log2FC” value (Gene 26574) was -0.362 and the “GREM1 log2FC” value (Gene 26585) was -0.311. The “CKAP2 log2FC” value (Gene 26586) was 0.829, the “CYFIP2 log2FC” value (Gene 26999) was -0.154 and the “NGFRAP1 log2FC” value (Gene 27018) was 0.134. For the same molecule, the “ANKRD1 log2FC” value (Gene 27063) was 0.342, the “GHITM log2FC” value (Gene 27069) was 0.501 and the “BBC3 log2FC” value (Gene 27113) was 2.148. The “CIDEB log2FC” value (Gene 27141) was -0.076, the “GLS2 log2FC” value (Gene 27165) was 0.175 and the “TNFRSF21 log2FC” value (Gene 27242) was -1.178. For the same molecule, the “PDCD4 log2FC” value (Gene 27250) was 1.281, the “KLHL20 log2FC” value (Gene 27252) was 0.174 and the “CECR2 log2FC” value (Gene 27443) was -0.568. For the same molecule, the “DBNL log2FC” value (Gene 28988) was -0.399, the “HIPK2 log2FC” value (Gene 28996) was -0.166 and the “SAP30BP log2FC” value (Gene 29115) was -0.314. For the same molecule, the “LGALS13 log2FC” value (Gene 29124) was -0.151, the “CARD10 log2FC” value (Gene 29775) was -0.324 and the “SENP1 log2FC” value (Gene 29843) was 0.416. For the same molecule, the “TFPT log2FC” value (Gene 29844) was -0.708, the “PNMA3 log2FC” value (Gene 29944) was 0.559 and the “UBQLN1 log2FC” value (Gene 29979) was 0.311. For the same molecule, the “ERO1L log2FC” value (Gene 30001) was 0.255, the “SH3KBP1 log2FC” value (Gene 30011) was 0.491 and the “KCNIP3 log2FC” value (Gene 30818) was 0.159. For the same molecule, the “RRM2B log2FC” value (Gene 50484) was 0.508, the “G0S2 log2FC” value (Gene 50486) was -0.063 and the “NOX4 log2FC” value (Gene 50507) was -0.318. For the same molecule, the “CHST11 log2FC” value (Gene 50515) was -0.798, the “ARHGEF4 log2FC” value (Gene 50649) was 0.114 and the “ARHGEF3 log2FC” value (Gene 50650) was 0.584. For the same molecule, the “GLRX2 log2FC” value (Gene 51022) was -0.287, the “RPS27L log2FC” value (Gene 51065) was 0.265 and the “APIP log2FC” value (Gene 51074) was 0.142. The “NDUFA13 log2FC” value (Gene 51079) was -0.190, the “GAL log2FC” value (Gene 51083) was -0.531 and the “SH3GLB1 log2FC” value (Gene 51100) was 0.592. For the same molecule, the “APH1A log2FC” value (Gene 51107) was -0.202, the “UTP11L log2FC” value (Gene 51118) was -0.844 and the “IER3IP1 log2FC” value (Gene 51124) was 0.463. For the same molecule, the “ANGPTL4 log2FC” value (Gene 51129) was -0.967, the “ING4 log2FC” value (Gene 51147) was 1.465 and the “LEF1 log2FC” value (Gene 51176) was -0.842. For the same molecule, the “BFAR log2FC” value (Gene 51283) was 0.564, the “PLAC8 log2FC” value (Gene 51316) was -0.141 and the “TNFRSF12A log2FC” value (Gene 51330) was -0.850. The “ANGPT4 log2FC” value (Gene 51378) was -0.106, the “DDX41 log2FC” value (Gene 51428) was -0.212 and the “GULP1 log2FC” value (Gene 51454) was 1.616. The “TRIAP1 log2FC” value (Gene 51499) was -0.820, the “ZC3HC1 log2FC” value (Gene 51530) was 0.230 and the “PIAS4 log2FC” value (Gene 51588) was -0.216. The “PIGT log2FC” value (Gene 51604) was 0.174, the “TAF9B log2FC” value (Gene 51616) was 0.427 and the “PTRH2 log2FC” value (Gene 51651) was -0.336. The “WWOX log2FC” value (Gene 51741) was -0.809, the “SIX4 log2FC” value (Gene 51804) was 0.564 and the “IL20RA log2FC” value (Gene 53832) was 0.097. The “CYCS log2FC” value (Gene 54205) was -0.446, the “WNT4 log2FC” value (Gene 54361) was -0.709 and the “DNAJC10 log2FC” value (Gene 54431) was 0.727. The “ZFAND6 log2FC” value (Gene 54469) was 0.430, the “ADAMTSL4 log2FC” value (Gene 54507) was -0.301 and the “DDIT4 log2FC” value (Gene 54541) was -0.893. For the same molecule, the “ING3 log2FC” value (Gene 54556) was 0.777, the “RRN3 log2FC” value (Gene 54700) was -0.293 and the “AHI1 log2FC” value (Gene 54806) was 0.585. The “QRICH1 log2FC” value (Gene 54870) was -0.061, the “TMEM161A log2FC” value (Gene 54929) was -0.567 and the “PHIP log2FC” value (Gene 55023) was 1.243. For the same molecule, the “USP47 log2FC” value (Gene 55031) was 0.762, the “OXR1 log2FC” value (Gene 55074) was 0.502 and the “UACA log2FC” value (Gene 55075) was 0.817. For the same molecule, the “IFT57 log2FC” value (Gene 55081) was 0.552, the “XKR8 log2FC” value (Gene 55113) was 0.287 and the “SHQ1 log2FC” value (Gene 55164) was -0.250. The “FAIM log2FC” value (Gene 55179) was 0.209, the “MAP1S log2FC” value (Gene 55201) was -0.375 and the “ATAD3A log2FC” value (Gene 55210) was -0.394. For the same molecule, the “STEAP3 log2FC” value (Gene 55240) was -0.569, the “RHOT1 log2FC” value (Gene 55288) was 0.620 and the “RFK log2FC” value (Gene 55312) was 0.519. The “PARL log2FC” value (Gene 55486) was -0.133, the “TNFRSF19 log2FC” value (Gene 55504) was -0.110 and the “CCAR1 log2FC” value (Gene 55749) was 0.836. The “PCID2 log2FC” value (Gene 55795) was 0.322, the “RNF130 log2FC” value (Gene 55819) was 0.142 and the “EAF2 log2FC” value (Gene 55840) was 0.438. For the same molecule, the “PSENEN log2FC” value (Gene 55851) was -0.304, the “BCAP29 log2FC” value (Gene 55973) was 0.449 and the “TEX11 log2FC” value (Gene 56159) was -0.066. The “CTNNBL1 log2FC” value (Gene 56259) was -0.141, the “DIABLO log2FC” value (Gene 56616) was -0.193 and the “ASAH2 log2FC” value (Gene 56624) was -0.191. The “TRIM39 log2FC” value (Gene 56658) was -0.084, the “BARHL1 log2FC” value (Gene 56751) was -0.269 and the “FMN2 log2FC” value (Gene 56776) was 0.105. For the same molecule, the “SPHK2 log2FC” value (Gene 56848) was -0.628, the “C8orf4 log2FC” value (Gene 56892) was -0.080 and the “MEIS3 log2FC” value (Gene 56917) was -0.061. The “DUSP22 log2FC” value (Gene 56940) was 0.419, the “CIAPIN1 log2FC” value (Gene 57019) was -0.388 and the “PCBP4 log2FC” value (Gene 57060) was -0.519. The “AVEN log2FC” value (Gene 57099) was -0.627, the “CAMK1D log2FC” value (Gene 57118) was -0.141 and the “RTN4 log2FC” value (Gene 57142) was 0.129. The “PAK7 log2FC” value (Gene 57144) was 0.396, the “BIRC6 log2FC” value (Gene 57448) was 0.155 and the “TAOK1 log2FC” value (Gene 57551) was 0.386. The “SEMA6A log2FC” value (Gene 57556) was -0.108, the “SH3RF1 log2FC” value (Gene 57630) was -0.399 and the “USP28 log2FC” value (Gene 57646) was 0.268. For the same molecule, the “GPAM log2FC” value (Gene 57678) was 0.310, the “CHD8 log2FC” value (Gene 57680) was -0.199 and the “TRIB3 log2FC” value (Gene 57761) was 0.343. The “NGB log2FC” value (Gene 58157) was -0.410, the “RBM25 log2FC” value (Gene 58517) was 0.406 and the “SAV1 log2FC” value (Gene 60485) was 0.676. For the same molecule, the “PROK2 log2FC” value (Gene 60675) was -0.050, the “ELMO2 log2FC” value (Gene 63916) was 0.581 and the “CIDEC log2FC” value (Gene 63924) was 0.346. The “FIGNL1 log2FC” value (Gene 63979) was -0.206, the “PERP log2FC” value (Gene 64065) was 0.653 and the “MOAP1 log2FC” value (Gene 64112) was 1.318. For the same molecule, the “RRAGC log2FC” value (Gene 64121) was 1.860, the “IFIH1 log2FC” value (Gene 64135) was 0.885 and the “ZMAT3 log2FC” value (Gene 64393) was -0.105. For the same molecule, the “ATG3 log2FC” value (Gene 64422) was 0.283, the “SUDS3 log2FC” value (Gene 64426) was -0.126 and the “MICAL1 log2FC” value (Gene 64780) was -0.454. For the same molecule, the “PLEKHG2 log2FC” value (Gene 64857) was -0.832.
